Patent publication US11472803B2, “7-substituted 1-aryl-naphthyridine-3-carboxylic acid amides and use thereof” (Bayer Aktiengesellschaft, priority 2016, dated 2022)

Biological target: T1, human M2 receptor (Homo sapiens, UniProt P08172)
T1 construct: expressed in transfected cells; host or cells: CHO-DUKX (CHO-DUKX-M2-GIRK)
T1 sequence (P08172 1-466): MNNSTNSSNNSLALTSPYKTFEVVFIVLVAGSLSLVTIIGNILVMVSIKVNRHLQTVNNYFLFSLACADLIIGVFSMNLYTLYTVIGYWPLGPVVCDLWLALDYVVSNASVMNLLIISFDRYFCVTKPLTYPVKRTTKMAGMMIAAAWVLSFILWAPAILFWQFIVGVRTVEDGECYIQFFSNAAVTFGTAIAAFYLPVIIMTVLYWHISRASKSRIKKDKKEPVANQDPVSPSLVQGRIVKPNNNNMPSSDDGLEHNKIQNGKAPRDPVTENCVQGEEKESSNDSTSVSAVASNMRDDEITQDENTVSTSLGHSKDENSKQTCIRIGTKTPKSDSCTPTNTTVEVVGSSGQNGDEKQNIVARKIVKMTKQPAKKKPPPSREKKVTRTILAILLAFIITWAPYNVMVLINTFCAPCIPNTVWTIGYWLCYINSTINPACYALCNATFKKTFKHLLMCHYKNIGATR
Assay: Functional M2-GIRK1/4 activation test: allosteric potency (EC50) and efficiency at EC20 acetylcholine
Assay type: cell-based
Settings: CHO-DUKX-M2-GIRK cells; for EC50: voltage-sensitive dye, acetylcholine at EC20, in some cases mean of two or more determinations; for Efficiency / Emax: boosting of the acetylcholine effect at EC20 acetylcholine concentration
Text: The binding of orthosteric agonists (endogenous ligand: acetylcholine) to the M2 receptor leads to receptor activation or a change in conformation of the receptor in the manner of a shift in equilibrium in favour of the active receptor conformation.
The agonist-induced change in conformation of the M2 receptor results in a Gαi protein activation. […] Under physiological conditions, the result is then a selective efflux of potassium from the cell along the electrochemical gradient. […] The extent of hyperpolarization can therefore be regarded as a measure of the activation of the M2 receptor.
The test cell used is a recombinant CHO-DUKX cell line which has been stably transfected with cDNA coding for the human M2 receptor and with cDNA coding for both GIRK1/4 subunits (CHO-DUKX-M2-GIRK). The transmembrane potential, or the relative changes in the transmembrane potential as a function of substance addition or M2 activation, is determined by means of a voltage-sensitive dye (FLIPR Membrane Potential Assay Kit Blue, Molecular Devices #R8034) and the measurement of cell fluorescence using a proprietary fluorescence imaging instrument.
The sowing medium consisted of MEM alpha medium (supplemented with 5% PCS, 2% Glutamax, no genticin).
For the particular measurement, the medium was removed and the cells were laden with the volt-age-sensitive dye for at least 6 min at room temperature (30 μl of loading buffer per 384-well). This was followed, in a first measurement, by the determination of the fluorescence for the resting transmembrane potential for a period of 5 sec. Thereafter, 10 μl in each case of the test substances diluted in loading buffer were added, followed by a second measurement to determine the transmembrane potential for a period of 50 sec in 1 sec increments. Finally, the cells were admixed with 10 μl of agonist solution (acetylcholine dissolved in loading buffer). Acetylcholine was used at the concentration corresponding to the EC20, which had been determined in a preliminary test. The M2-mediated GIRK1/4 activation or hyperpolarization was then monitored in a third measurement over a period of 60 sec. The EC50 value (degree of allosteric potency of test compound) and the efficiency (measure of the boosting of the acetylcholine effect at an EC20 acetylcholine concentration) were determined with the aid of a 4-parameter logistic function (Hill function).

SMILES: CC(NC(=O)c1cn(-c2c(F)cc(F)cc2F)c2nc(N3CCC(O)C(O)C3)c(F)cc2c1=O)C(F)(F)C(F)(F)F (single isomer, unassigned) [Example 183, 7-(3,4-Dihydroxypiperidin-1-yl)-6-fluoro-4-oxo-N-(3,3,4,4,4-pentafluorobutan-2-yl)-1-(2,4,6-trifluorophenyl)-1,4-dihydro-1,8-naphthyridine-3-carboxamide]
- EC50: 42.3 nM
- Efficiency: 96%

SMILES: CC(NC(=O)c1cn(-c2c(F)cc(F)cc2F)c2nc(N3CCC(CO)(CO)CC3)c(F)cc2c1=O)C(F)(F)C(F)(F)F (single isomer, unassigned) [Example 187, 7-[4,4-bis(hydroxymethyl)piperidin-1-yl]-6-fluoro-4-oxo-N-(3,3,4,4,4-pentafluorobutan-2-yl)-1-(2,4,6-trifluorophenyl)-1,4-dihydro-1,8-naphthyridine-3-carboxamide]
- EC50: 9.9 nM
- Emax: 90%

SMILES: CC(NC(=O)c1cn(-c2c(F)cc(F)cc2F)c2nc(N3CC[C@H](O)[C@@H]3CO)c(F)cc2c1=O)C(F)(F)C(F)(F)F (single isomer, unassigned) [Example 194]
- EC50: 31.5 nM
- Emax: 94%

SMILES: O=C(NC(C1CC1)C(F)(F)C(F)(F)F)c1cn(-c2c(F)cc(F)cc2F)c2nc(N3C[C@@H](O)[C@H](O)C3)c(F)cc2c1=O (single isomer, unassigned) [Example 202]
- EC50: 1 nM
- Efficiency: 100%

SMILES: O=C(NC(C1CC1)C(F)(F)C(F)(F)F)c1cn(-c2c(F)cc(F)cc2F)c2nc(N3CC4(COC4)C3)c(F)cc2c1=O (single isomer, unassigned) [Example 204, N-[1-cyclopropyl-2,2,3,3,3-pentafluoropropyl]-6-fluoro-7-(2-oxa-6-azaspiro[3.3]hept-6-yl)-4-oxo-1-(2,4,6-trifluorophenyl)-1,4-dihydro-1,8-naphthyridine-3-carboxamide]
- EC50: 17 nM
- Emax: 97%

SMILES: O=C(NC(C1CC1)C(F)(F)C(F)(F)F)c1cn(-c2c(F)cc(F)cc2F)c2nc(N3CC4(COC4)C3)c(F)cc2c1=O (single isomer, unassigned) [Example 206, N-[1-cyclopropyl-2,2,3,3,3-pentafluoropropyl]-6-fluoro-7-(2-oxa-6-azaspiro[3.3]hept-6-yl)-4-oxo-1-(2,4,6-trifluorophenyl)-1,4-dihydro-1,8-naphthyridine-3-carboxamide]
- EC50: 10 nM
- Efficiency: 100%

SMILES: CC(C)(C)C(NC(=O)c1cn(-c2c(F)cc(F)cc2F)c2nc(N3CC4(COC4)C3)c(F)cc2c1=O)C(F)(F)C(F)(F)F (single isomer, unassigned) [Example 213, 6-Fluoro-7-(2-oxa-6-azaspiro[3.3]hept-6-yl)-4-oxo-N-[1,1,1,2,2-pentafluoro-4,4-dimethylpentan-3-yl]-1-(2,4,6-trifluorophenyl)-1,4-dihydro-1,8-naphthyridine-3-carboxamide]
- EC50: 13 nM
- Emax: 100%

SMILES: CC(C)(C)C(NC(=O)c1cn(-c2c(F)cc(F)cc2F)c2nc(N3CC(CO)(CO)C3)c(F)cc2c1=O)C(F)(F)C(F)(F)F (single isomer, unassigned) [Example 214, 7-[3,3-bis(hydroxymethyl)azetidin-1-yl]-6-fluoro-4-oxo-N-[1,1,1,2,2-pentafluoro-4,4-dimethylpentan-3-yl]-1-(2,4,6-trifluorophenyl)-1,4-dihydro-1,8-naphthyridine-3-carboxamide]
- EC50: 2.1 nM
- Emax: 100%

SMILES: CC(C)(C)C(NC(=O)c1cn(-c2c(F)cc(F)cc2F)c2nc(N3CC4(COC4)C3)c(F)cc2c1=O)C(F)(F)C(F)(F)F (single isomer, unassigned) [Example 215, 6-Fluoro-7-(2-oxa-6-azaspiro[3.3]hept-6-yl)-4-oxo-N-[1,1,1,2,2-pentafluoro-4,4-dimethylpentan-3-yl]-1-(2,4,6-trifluorophenyl)-1,4-dihydro-1,8-naphthyridine-3-carboxamide]
- EC50: 8.6 nM
- Efficiency: 100%

SMILES: CC(C)(C)C(NC(=O)c1cn(-c2c(F)cc(F)cc2F)c2nc(N3CC(CO)(CO)C3)c(F)cc2c1=O)C(F)(F)C(F)(F)F (single isomer, unassigned) [Example 216, 7-[3,3-bis(hydroxymethyl)azetidin-1-yl]-6-fluoro-4-oxo-N-[1,1,1,2,2-pentafluoro-4,4-dimethylpentan-3-yl]-1-(2,4,6-trifluorophenyl)-1,4-dihydro-1,8-naphthyridine-3-carboxamide]
- EC50: 1.5 nM
- Efficiency: 99%

SMILES: O=C(NCC(F)(F)F)c1cn(-c2c(F)cc(F)cc2Cl)c2nc(N3C[C@@H](O)[C@H](O)C3)c(F)cc2c1=O (single isomer, unassigned) [Example 222]
- EC50: 550 nM
- Efficiency: 61%

SMILES: O=C(NCC(F)(F)F)c1cn(-c2c(F)cc(F)cc2Cl)c2nc(N3C[C@@H](O)[C@H](O)C3)c(F)cc2c1=O (single isomer, unassigned) [Example 223]
- EC50: 26 nM
- Efficiency: 86%

SMILES: C[C@H](NC(=O)c1cn(-c2c(F)cc(F)cc2Cl)c2nc(N3C[C@@H](O)[C@H](O)C3)c(F)cc2c1=O)C(F)(F)F (single isomer, unassigned) [Example 225]
- EC50: 110 nM
- Emax: 82%

SMILES: C[C@@H](NC(=O)c1cn(-c2c(F)cc(F)cc2Cl)c2nc(N3C[C@@H](O)[C@H](O)C3)c(F)cc2c1=O)C(F)(F)F (single isomer, unassigned) [Example 229]
- EC50: 260 nM
- Efficiency: 67%

SMILES: CC(NC(=O)c1cn(-c2c(F)cc(F)cc2F)c2nc(N3CC[C@H](O)C3)c(Br)cc2c1=O)C(F)(F)C(F)(F)F (single isomer, unassigned) [Example 232]
- EC50: 7 nM
- Emax: 100%

SMILES: O=C(N[C@@H](C1CC1)C(F)(F)F)c1cn(-c2c(F)cccc2F)c2nc(N3C[C@@H](O)[C@H](O)C3)c(F)cc2c1=O [Example 2, N-[(1S)-1-Cyclopropyl-2,2,2-trifluoroethyl]-1-(2,6-difluorophenyl)-7-[(3R,4R)-3,4-dihydroxypyrrolidin-1-yl]-6-fluoro-4-oxo-1,4-dihydro-1,8-naphthyridine-3-carboxamide]
- EC50: 35.5 nM
- Emax: 96%

SMILES: CC[C@H](NC(=O)c1cn(-c2c(F)cccc2F)c2nc(N3C[C@@H](O)[C@H](O)C3)c(F)cc2c1=O)C(F)(F)F [Example 3, 1-(2,6-Difluorophenyl)-7-[(3R,4R)-3,4-dihydroxypyrrolidin-1-yl]-6-fluoro-4-oxo-N-[(2S)-1,1,1-trifluorobutan-2-yl]-1,4-dihydro-1,8-naphthyridine-3-carboxamide]
- EC50: 38 nM
- Emax: 97%

SMILES: CC[C@H](NC(=O)c1cn(-c2c(F)cccc2F)c2nc(N(C)CCO)c(F)cc2c1=O)C(F)(F)F [Example 4, 1-(2,6-Difluorophenyl)-6-fluoro-7-[(2-hydroxyethyl)(methyl)amino]-4-oxo-N-[(2S)-1,1,1-trifluorobutan-2-yl]-1,4-dihydro-1,8-naphthyridine-3-carboxamide]
- EC50: 38 nM
- Emax: 89%

SMILES: O=C(NC12CC(C1)C2)c1cn(-c2c(F)cccc2F)c2nc(N3C[C@@H](O)[C@H](O)C3)c(F)cc2c1=O [Example 5, N-(Bicyclo[1.1.1]pent-1-yl)-1-(2,6-difluorophenyl)-7-[(3R,4R)-3,4-dihydroxypyrrolidin-1-yl]-6-fluoro-4-oxo-1,4-dihydro-1,8-naphthyridine-3-carboxamide]
- EC50: 69 nM
- Emax: 99%

SMILES: COC[C@@H](NC(=O)c1cn(-c2c(F)cc(F)cc2F)c2nc(N3C[C@@H](O)[C@H](O)C3)c(F)cc2c1=O)C(C)C [Example 17, 7-[(3R,4R)-3,4-dihydroxypyrrolidin-1-yl]-6-fluoro-N-[(2S)-1-methoxy-3-methylbutan-2-yl]-4-oxo-1-(2,4,6-trifluorophenyl)-1,4-dihydro-1,8-naphthyridine-carboxamide]
- EC50: 79.5 nM
- Emax: 83%
